Results published in US20040082664A1, “Derivatives of hydroxyphenyl, a method for preparing thereof and their pharmaceutical composition” (priority 2002, published 2004).

Columns and labels:
GST-fused lck SH2 domain = target: T1, GST-fused lck SH2 domain (Homo sapiens, UniProt P06239); experiment: Inhibition of in vitro binding of lck SH2 domain to its cognate pYEEI peptide (BIAcore 2000); details: IC50 class for inhibition of GST-lckSH2 binding to immobilized biotinylated […]pYEEIPI peptide; read-out: BOND DEGREE WITH SH2 OF 1ck
T1 construct: GST (Glutathione transferase)-fused lck SH2 domain
T1 sequence (P06239 127-224 limits assumed): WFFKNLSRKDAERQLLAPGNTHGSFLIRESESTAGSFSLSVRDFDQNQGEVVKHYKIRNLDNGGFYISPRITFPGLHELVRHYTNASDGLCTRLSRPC
Method: The present inventors investigated the inhibition activity of phenyl derivatives on the interaction of GST (Glutathione transferase)-fused lck SH2 domain and a peptide […]pYEEIPI (comprising the sequence PYEEI, a cognate peptide of Lck SH2) by using a real time sensorgram (BIAcore 2000).
At first, the biotinylated peptide was fixed on the surface of BIAcore analysis apparatus and then GST-lckSH2 protein was injected over the surface of the immobilized peptides. The binding of GST-lck SH2 with the peptide is represented as the resonance units (referred as “RU” hereinafter) and 1,000 RU corresponds to a change in surface concentration of 1 ng/mm^2. The binding of GST-lck with the fixed peptide causes the change of refractory index, leading to the increase of RU. In the mean time, when the binding of GST-lck with the fixed peptide is inhibited, RU decreases. Those results are represented in Table 1.

IL-2 promoter = IL-2 promoter luciferase reporter assay in anti-CD3 activated Jurkat cells; format: cell-based; details: Homo sapiens, TCR-induced (anti-CD3) IL-2 promoter luciferase, 2 h pre-incubation
Method: In order to confirm whether the compounds of the invention can pass through a cell membrane and inhibit the expression of IL-2 gene leading to T-cell proliferation, the present inventors firstly confirmed T-cell activity by detecting the activity of the luciferase fused on the downstream of IL-2 promoter.
To investigate the activity of IL-2 promoter, Jurkat cells (1×10^6) were transfected with a IL-2 reporter plasmids using Superfect™ (Qiagen Inc.). After 24 hours of transfection, Jurkat cells were pre-incubated with compounds of various concentrations (1 uM-50 uM) for 2 hours and further cultured on 35mm plate pre-coated with 5 ug/ml of anti-CD3 antibody, resulting in T cell activation. The luciferase activity was measured using Berthold luminometer LB953. The IC50 (50% inhibition concentration) of the compounds of the invention on TCR-induced IL-2 promoter activation are shown in Table 2.

[1] = tested on: collagen-induced rheumatoid arthritis; experiment: Inhibition of collagen-induced rheumatoid arthritis in DBA1/LacJ mice; format: in vivo, mouse; set-up: key: sum of 4 leg scores (0-4 each), max 16; details: maximum 16, mean ± standard deviation
Method: After 2 weeks, booster immunization was carried out with 50 μg C II/IFA. From the 3rd week after primary immunization, compounds of the present invention were injected daily into peritoneal cavities of 6-8 mice per group for 15-20 days.
The vehicle control groups were injected daily with 100 μl of 5% ethanol-olive oil mixture in total 15-20 times. Widely used anti-rheumatic drug, Methotrexate, was dissolved in PBS and then injected to mice at 1 mg/kg/day every other day in total 8-10 times. Meanwhile, the compounds of the invention were dissolved in ethanol and then mulsified in olive oil, in which the final ethanol concentration was adjusted to 5% and the compounds of this invention was 50 mg/kg/day.
From the 3rd week after primary immunization, the extent of edema and the joint swelling was monitored everyday to determine arthritic index. Arthitic index is the sum of the arthritic scores of all 4 legs and, therefore, maximum arthritis index of 16 can be achieved (e.g., [4 (maximum arthritic score)/leg]×[4 legs/mouse]=16 (maximum arthritis index/mouse)). […] was presented by the mean arthritis index±standard deviation of each mouse group.

[2] = 50 mg/kg/day i.p. daily, day 15 after treatment (day 36 after primary immunization), sum of scores of four legs

COC(=O)[C@@H](Cc1ccc(O)c(O)c1)NC(=S)/C=C/c1ccc(O)c(O)c1 [Example 15, 3-(3,4-dihydroxy-phenyl)-(R)-2-[3-trans-(3,4-dihydroxy-phenyl)-thioacryloylamino]-propionic acid methyl ester]
IC50 (GST-fused lck SH2 domain): 10 to 25 µM
IC50 (IL-2 promoter): 17.1 µM
Arthritis index [1, 2]: 5.7 ± 0.9

CC(C)(C)OC(=O)[C@@H](Cc1ccc(O)c(O)c1)NC(=S)/C=C/c1ccc(O)c(O)c1 [Example 20, 3-(3,4-dihydroxy-phenyl)-(R)-2-[3-trans-(3,4-dihydroxy-phenyl)-thioacrylolamino]-propionic acid tert-butyl ester]
IC50 (GST-fused lck SH2 domain): 25 to 50 µM
IC50 (IL-2 promoter): 21.4 µM
Arthritis index [1, 2]: 6.7 ± 0.4

CC(C)(C)OC(=O)[C@@H](Cc1ccc(O)c(O)c1)NC(=O)/C=C/c1ccc(O)c(O)c1 [Example 6, 3-(3,4-dihydroxy-phenyl)-(R)-2-[3-trans-(3,4-dihydroxy-phenyl)-acryloylamino]propionic acid tert-butyl ester]
IC50 (GST-fused lck SH2 domain): 10 to 25 µM
IC50 (IL-2 promoter): 7.8 µM
Arthritis index [1, 2]: 5.8 ± 0.9

CC(C)OC(=O)[C@@H](Cc1ccc(O)c(O)c1)N(C)C(=O)/C=C/c1ccc(O)c(O)c1 [Example 33, 3-(3,4-dihydroxy-phenyl)-(R)-2-{[3-trans-(3,4-dihydroxy-phenyl)-acryloyl]-methyl-amino}-propionic acid isopropyl ester]
IC50 (GST-fused lck SH2 domain): 10 to 25 µM
IC50 (IL-2 promoter): 7.8 µM
Arthritis index [1, 2]: 5.7 ± 0.9

NC(=O)[C@@H](Cc1ccc(O)c(O)c1)NC(=O)/C=C/c1ccc(O)c(O)c1 [Example 7]
IC50 (GST-fused lck SH2 domain): < 10 µM
IC50 (IL-2 promoter): 2.4 µM
Arthritis index [1, 2]: 4.3 ± 1.5

CN(C(=O)/C=C/c1ccc(O)c(O)c1)[C@H](Cc1ccc(O)c(O)c1)C(=O)OC(C)(C)C [Example 34, 3-(3,4-dihydroxy-phenyl)-(R)-2-{[3-trans-(3,4-dihydroxy-phenyl)-acryloyl]-methyl-amino}-propionic acid tert-butyl ester]
IC50 (GST-fused lck SH2 domain): 25 to 50 µM
IC50 (IL-2 promoter): 14.9 µM
Arthritis index [1, 2]: 6.3 ± 0.8

COC(=O)[C@@H](Cc1ccc(O)c(O)c1)N(C)C(=O)/C=C/c1ccc(O)c(O)c1 [Example 29, 3-(3,4-dihydroxy-phenyl)-(R)-2-{[3-trans-(3,4-dihydroxy-phenyl)-acryloyl]-methyl-amino}-propionic acid methyl ester]
IC50 (GST-fused lck SH2 domain): 10 to 25 µM
IC50 (IL-2 promoter): 7.6 µM
Arthritis index [1, 2]: 6.1 ± 2.1

COC(=O)[C@@H](Cc1ccc(O)cc1)NC(=O)/C=C/c1ccc(O)c(O)c1 [Example 45]
IC50 (GST-fused lck SH2 domain): 10 to 25 µM
IC50 (IL-2 promoter): 7.8 µM
Arthritis index [1, 2]: 5.7 ± 0.9

CN(C(=O)/C=C/c1ccc(O)c(O)c1)[C@@H](Cc1ccc(O)c(O)c1)C(=O)O [Example 37, 3-(3,4-dihydroxy-phenyl)-(S)-2-{[3-trans-(3,4-dihydroxy-phenyl)-acryloyl]-methyl-amino}-propionic acid]
IC50 (GST-fused lck SH2 domain): 25 to 50 µM
IC50 (IL-2 promoter): 17.3 µM
Arthritis index [1, 2]: 6.7 ± 0.7

COC(=O)[C@@H](Cc1ccc(O)c(O)c1)NC/C=C/c1ccc(O)c(O)c1 [Example 53, 3-(3,4-dihydroxy-phenyl)-2-[3-(3,4-dihydroxy-phenyl)-arylamino]-propionic acid methyl ester]
IC50 (GST-fused lck SH2 domain): 25 to 50 µM

CN(Cc1cnc2nc(N)nc(N)c2n1)c1ccc(C(=O)N[C@@H](CCC(=O)O)C(=O)O)cc1 [MTX, methotrexate, reference compound]
Arthritis index ([1]; Methotrexate 1 mg/kg/day every other day in PBS, day 15 after treatment): 4.0 ± 1.1

CCOC(=O)[C@@H](Cc1ccc(O)c(O)c1)NC(=O)/C=C/c1ccc(O)c(O)c1 [Example 3, 3-(3,4-dihydroxy-phenyl)-(R)-2-[3-trans-(3,4-dihydroxy-phenyl)-acryloylamino]-propionic acid ethyl ester]
IC50 (GST-fused lck SH2 domain): < 10 µM
IC50 (IL-2 promoter): 4.8 µM
Arthritis index [1, 2]: 4.5 ± 0.8

CN(C(=O)/C=C/c1ccc(O)c(O)c1)[C@H](Cc1ccc(O)c(O)c1)C(=O)O [Example 30]
IC50 (GST-fused lck SH2 domain): 25 to 50 µM
IC50 (IL-2 promoter): 15.8 µM
Arthritis index [1, 2]: 6.5 ± 0.6

CC(C)OC(=O)[C@@H](Cc1ccc(O)c(O)c1)NC(=S)/C=C/c1ccc(O)c(O)c1 [Example 19, 3-(3,4-dihydroxy-phenyl)-(R)-2-[3-trans-(3,4-dihydroxy-phenyl)-thioacryloylamino]-propionic acid isopropyl ester]
IC50 (GST-fused lck SH2 domain): 10 to 25 µM
IC50 (IL-2 promoter): 8.9 µM
Arthritis index [1, 2]: 5.1 ± 1.1

CN(C(=O)/C=C/c1ccc(O)c(O)c1)[C@H](Cc1ccc(O)c(O)c1)C(N)=O [Example 35, N-[l-carbamoyl-2-(3,4-dihydroxy-phenyl)-ethyl]-(R)-3-trans-(3,4-dihydroxy-phenyl)-N-methyl-acrylamide]
IC50 (GST-fused lck SH2 domain): 10 to 25 µM
IC50 (IL-2 promoter): 9.7 µM
Arthritis index [1, 2]: 6.8 ± 1.9

CCOC(=O)[C@H](Cc1ccc(O)c(O)c1)NC(=S)/C=C/c1ccc(O)c(O)c1 [Example 24, 3-(3,4-dihydroxy-phenyl)-(S)-2-[3-trans-(3,4-dihydroxy-phenyl)-thioacryloylamino]-propionic acid ethyl ester]
IC50 (GST-fused lck SH2 domain): 10 to 25 µM
IC50 (IL-2 promoter): 10.8 µM
Arthritis index [1, 2]: 6.1 ± 0.6

NC(=O)[C@@H](Cc1ccc(O)c(O)c1)NC(=S)/C=C/c1ccc(O)c(O)c1 [Example 21, 3-(3,4-dihydroxy-phenyl)-(R)-2-[3-trans-(3,4-dihydroxy-phenyl)-thioacryloylamino]-propioneamide]
IC50 (GST-fused lck SH2 domain): 10 to 25 µM
IC50 (IL-2 promoter): 7.8 µM
Arthritis index [1, 2]: 5.8 ± 1.3

CCOC(=O)[C@@H](Cc1ccc(O)c(O)c1)N(C)C(=O)/C=C/c1ccc(O)c(O)c1 [Example 31]
IC50 (GST-fused lck SH2 domain): 10 to 25 µM
IC50 (IL-2 promoter): 8.9 µM
Arthritis index [1, 2]: 5.9 ± 2.1

CCOC(=O)[C@H](Cc1ccc(O)c(O)c1)N(C)C(=O)/C=C/c1ccc(O)c(O)c1 [Example 38, 3-(3,4-dihydroxy-phenyl)-(S)-2-{[3-trans-(3,4-dihydroxy-phenyl)-acryloyl]-methyl-amino}-propionic acid ethyl ester]
IC50 (GST-fused lck SH2 domain): 10 to 25 µM
IC50 (IL-2 promoter): 11 µM
Arthritis index [1, 2]: 5.5 ± 1.3

CC(C)OC(=O)[C@@H](Cc1ccc(O)c(O)c1)NC(=O)/C=C/c1ccc(O)c(O)c1 [Example 5, 3-(3,4-dihydroxy-phenyl)-(R)-2-[3-trans-(3,4-dihydroxy-phenyl)-acryloylamino]-propionic acid isopropyl ester]
IC50 (GST-fused lck SH2 domain): < 10 µM
IC50 (IL-2 promoter): 6.5 µM
Arthritis index [1, 2]: 4.9 ± 1.2

CC(C)OC(=O)[C@H](Cc1ccc(O)c(O)c1)NC(=S)/C=C/c1ccc(O)c(O)c1 [Example 26, 3-(3,4-dihydroxy-phenyl)-(S)-2-[3-trans-(3,4-dihydroxy-phenyl)-thioacryloylamino]-propionic acid isopropyl ester]
IC50 (GST-fused lck SH2 domain): 25 to 50 µM
IC50 (IL-2 promoter): 18.7 µM
Arthritis index [1, 2]: 7.0 ± 0.9

CCCOC(=O)[C@@H](Cc1ccc(O)c(O)c1)NC(=S)/C=C/c1ccc(O)c(O)c1 [Example 18, 3-(3,4-dihydroxy-phenyl)-(R)-2-[3-trans-(3,4-dihydroxy-phenyl)-thioacryloylamino]-propionic acid propyl ester]
IC50 (GST-fused lck SH2 domain): 10 to 25 µM
IC50 (IL-2 promoter): 5.6 µM
Arthritis index [1, 2]: 5.8 ± 0.3

CCOC(=O)[C@@H](Cc1ccc(O)c(O)c1)NC(=S)/C=C/c1ccc(O)c(O)c1 [Example 17, 3-(3,4-dihydroxy-phenyl)-(R)-2-[3-trans-(3,4-dihydroxy-phenyl)-thioacryloylamino]-propionic acid ethyl ester]
IC50 (GST-fused lck SH2 domain): 10 to 25 µM
IC50 (IL-2 promoter): 4.6 µM
Arthritis index [1, 2]: 5.4 ± 0.7
